Test results: PubChem BioAssay (NCI)
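Results reflect a 48-hour exposure of cells in 96-well plates to compound at five concentrations. TGI: total growth inhibition.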

How the values were obtained:
Experiment in all cases: growth of human tumour cells (NCI), 48 h
MALME-3M melanoma = tested on: MALME-3M melanoma
KM12 colon = tested on: KM12 colon
HOP-62 NSCLC = tested on: HOP-62 NSCLC
OVCAR-3 ovarian = tested on: OVCAR-3 ovarian
NCI-H460 lung = tested on: NCI-H460 lung
OVCAR-4 ovarian = tested on: OVCAR-4 ovarian
KM20L2 colon = tested on: KM20L2 colon
CCRF-CEM leukemia = tested on: CCRF-CEM leukemia
CAKI-1 renal = tested on: CAKI-1 renal
HOP-92 NSCLC = tested on: HOP-92 NSCLC
XF 498 CNS = tested on: XF 498 CNS
786-0 renal = tested on: 786-0 renal
HL-60(TB) leukemia = tested on: HL-60(TB) leukemia
SF-268 CNS = tested on: SF-268 CNS
SNB-19 CNS = tested on: SNB-19 CNS
SK-OV-3 ovarian = tested on: SK-OV-3 ovarian
LXFL 529 NSCLC = tested on: LXFL 529 NSCLC
SK-MEL-28 melanoma = tested on: SK-MEL-28 melanoma
COLO 205 colon = tested on: COLO 205 colon
SR leukemia = tested on: SR leukemia
UACC-257 melanoma = tested on: UACC-257 melanoma
M19-MEL melanoma = tested on: M19-MEL melanoma
U251 CNS = tested on: U251 CNS
SN12C renal = tested on: SN12C renal
UACC-62 melanoma = tested on: UACC-62 melanoma
SNB-75 CNS = tested on: SNB-75 CNS
HCC-2998 colon = tested on: HCC-2998 colon
A549 NSCLC = tested on: A549 NSCLC
SF-295 CNS = tested on: SF-295 CNS
EKVX NSCLC = tested on: EKVX NSCLC
ACHN renal = tested on: ACHN renal
MOLT-4 leukemia = tested on: MOLT-4 leukemia
HT29 colon = tested on: HT29 colon
NCI-H226 lung = tested on: NCI-H226 lung
OVCAR-5 ovarian = tested on: OVCAR-5 ovarian
M14 melanoma = tested on: M14 melanoma
SW-620 colon = tested on: SW-620 colon
A498 renal = tested on: A498 renal
RPMI-8226 leukemia = tested on: RPMI-8226 leukemia
HCT-116 colon = tested on: HCT-116 colon
NCI-H522 lung = tested on: NCI-H522 lung
UO-31 renal = tested on: UO-31 renal
TK-10 renal = tested on: TK-10 renal
NCI-H23 lung = tested on: NCI-H23 lung
OVCAR-8 ovarian = tested on: OVCAR-8 ovarian
SNB-78 CNS = tested on: SNB-78 CNS
DLD-1 colon = tested on: DLD-1 colon
SK-MEL-2 melanoma = tested on: SK-MEL-2 melanoma
K-562 leukemia = tested on: K-562 leukemia
MCF7 breast = tested on: MCF7 breast
T-47D breast = tested on: T-47D breast
NCI/ADR-RES ovarian = tested on: NCI/ADR-RES ovarian
SK-MEL-5 melanoma = tested on: SK-MEL-5 melanoma
MDA-MB-435 = tested on: MDA-MB-435
MDA-MB-231 breast = tested on: MDA-MB-231 breast
LOX IMVI melanoma = tested on: LOX IMVI melanoma
HS 578T breast = tested on: HS 578T breast
MDA-N = tested on: MDA-N
DU-145 prostate = tested on: DU-145 prostate
SF-539 CNS = tested on: SF-539 CNS
RXF 393 renal = tested on: RXF 393 renal
BT-549 breast = tested on: BT-549 breast
IGROV1 ovarian = tested on: IGROV1 ovarian
PC-3 prostate = tested on: PC-3 prostate
HCT-15 colon = tested on: HCT-15 colon

Measured: TGI

COc1cc(Br)c(CC2NCCc3cc(OC)c(OC)cc32)cc1OC (stereo not drawn)
not listed: MCF7 breast | T-47D breast | NCI/ADR-RES ovarian | SK-MEL-5 melanoma | MDA-MB-435 | MDA-MB-231 breast | LOX IMVI melanoma | HS 578T breast | MDA-N | DU-145 prostate | SF-539 CNS | RXF 393 renal | BT-549 breast | IGROV1 ovarian | PC-3 prostate | HCT-15 colon
> 100 µM: all other assays above

CCCCCOC(=O)C(=O)Nc1n[nH]nc1C(N)=O
not listed: KM20L2 colon | XF 498 CNS | LXFL 529 NSCLC | M19-MEL melanoma | SNB-78 CNS | DLD-1 colon
> 100 µM: all other assays above
